# *1 amine or outer side, *2 acyl side, *3 side chain or, on linkers, in order; H or OH if unused. Where a SMILES comes first, the peptide text is derived from it. Bridges are numbered along the chain shown (N, C = ends). [ ]: non-standard residue; d: D form. The star is where a group is joined. GdDOTA = Gd(III) DOTA conjugate, O=C([O-])CN1CCN(CC(=O)[O-])CCN(CC(=O)*)CCN(CC(=O)[O-])CC1.[Gd+3]; DOTA(In) = O=C1CN2CCN3CCN(CC(=O)*)CCN(CC2)CC(=O)[O][In]([O]1)[O]C(=O)C3; DOTA(Lu) = O=C1CN2CCN3CCN(CC(=O)*)CCN(CC2)CC(=O)[O][Lu]([O]1)[O]C(=O)C3; DOTA = O=C(O)CN1CCN(CC(=O)O)CCN(CC(=O)*)CCN(CC(=O)O)CC1; Pro(trans-4-F) = O=C(O)[C@@H]1C[C@@H](F)CN1; Phe(4-Cl) = N[C@@H](Cc1ccc(Cl)cc1)C(=O)O; Pro(cis-4-F) = O=C(O)[C@@H]1C[C@H](F)CN1; Hyp = O=C(O)[C@@H]1C[C@@H](O)CN1; hPhe = N[C@@H](CCc1ccccc1)C(=O)O; tBuAla = CC(C)(C)C[C@H](N)C(=O)O; αMeF = C[C@](N)(Cc1ccccc1)C(=O)O; LaDOTA = La(III) DOTA conjugate; Pentanoyl(4-Me) = CC(C)CCC(=O)*; Cit = NC(=O)NCCC[C@H](N)C(=O)O; Cysteamide = C(CS[*:3])N[*:1]; NMeL = CN[C@@H](CC(C)C)C(=O)O; αMeL = CC(C)C[C@](C)(N)C(=O)O; Butoxycarbonyl = CCCCOC(=O)*; Chg = N[C@H](C(=O)O)C1CCCCC1; Ac6c = NC1(C(=O)O)CCCCC1; Nva = CCC[C@H](N)C(=O)O; Pentanoyl = CCCCC(=O)*; Aib = CC(C)(N)C(=O)O
# Assays:
# [1] = biological target: T1, uPAR-expressing HEC-265 human endometrial adenocarcinoma cells (Homo sapiens, UniProt Q03405); assay: Competitive FACS binding assay; details: pIC50 category of FACS binding
# T1 construct: Cell surface uPAR-expressing HEC-265 human endometrial adenocarcinoma cells; host or cells: HEC-265
# How it was run: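 Competitive displacement of a 10 nM biotinylated peptide from HEC-265 cells (1 h, 4 °C, PBS/1% BSA), detected via APC-streptavidin by flow cytometry. pIC50 from four-parameter logistic fit of median fluorescence versus concentration.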
# human uPAR (uPAR-Fc) = biological target: T2, human uPAR (uPAR-Fc) (Homo sapiens, UniProt Q03405); assay: Surface plasmon resonance (SPR) assay, single cycle kinetics; assay type: binding; details: pKD category for uPAR SPR activity assay, uPAR-Fc on Protein A-Chip, 25°C; for Kd: read-out: pKD CAT (converted)
# T2 construct: comprising amino acids Leu23-Arg303 according to UniProt entry Q03405.1; purchased R&D Systems 10378-UK-100
# How it was run: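 uPAR-Fc (Leu23-Arg303 extracellular domains, human IgG1 Fc) captured on Protein A chip to ~2000 RU; single-cycle kinetics at 25°C in HEPES running buffer pH 7.4 with 0.1% DMSO. KD from double-referenced sensorgrams fitted to 1:1 Langmuir model, reported as pKD.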
# T1 sequence (Q03405 23-335): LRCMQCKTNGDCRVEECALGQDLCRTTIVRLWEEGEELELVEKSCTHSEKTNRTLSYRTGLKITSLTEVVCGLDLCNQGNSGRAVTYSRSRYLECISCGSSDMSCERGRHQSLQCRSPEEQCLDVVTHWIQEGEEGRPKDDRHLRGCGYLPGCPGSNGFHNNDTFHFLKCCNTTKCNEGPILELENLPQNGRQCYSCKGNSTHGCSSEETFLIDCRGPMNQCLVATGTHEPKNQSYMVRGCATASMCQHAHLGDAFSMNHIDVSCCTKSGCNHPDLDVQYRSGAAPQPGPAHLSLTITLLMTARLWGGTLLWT
# T2 sequence (Q03405 23-303): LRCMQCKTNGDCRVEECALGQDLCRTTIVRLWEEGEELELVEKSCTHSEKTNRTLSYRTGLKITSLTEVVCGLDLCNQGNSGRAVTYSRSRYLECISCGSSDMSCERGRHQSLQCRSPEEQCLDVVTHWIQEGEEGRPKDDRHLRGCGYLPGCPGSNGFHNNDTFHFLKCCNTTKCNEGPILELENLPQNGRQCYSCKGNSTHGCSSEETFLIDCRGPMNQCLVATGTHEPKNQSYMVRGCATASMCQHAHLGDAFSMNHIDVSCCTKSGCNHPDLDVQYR
IC50 [1],Kd (human uPAR (uPAR-Fc); single cycle kinetics),pIC50 CAT [1],pKD CAT (human uPAR (uPAR-Fc)),pKD CAT (human uPAR (uPAR-Fc); single cycle kinetics),Compound
0.0398 to 0.1 µM,0.01 to 0.1 µM,–,–,–,"CC[C@H](C)[C@@H]1NC(=O)[C@@H](C)NC(=O)[C@@H]2CCCN2C(=O)[C@H](Cc2ccccc2)NC(=O)[C@H](Cc2ccc(O)cc2)NC(=O)[C@H](CCC(N)=O)NC(=O)[C@H](CCCNC(N)=O)NC(=O)[C@@H](NC(=O)CCC(C)C)CSSC[C@@H](C(N)=O)NC(=O)[C@H](CC(C)(C)C)NC1=O [UPAR-477, iHex-[Cys-Cit-Gln-Tyr-Phe-Pro-ala-Ile-Npg-Cys]-NH2] ({Pentanoyl(4-Me)}-C[Cit]QYFP[dA]I[tBuAla]C-NH2; disulfide 1-10)"
0.0398 to 0.1 µM,0.01 to 0.1 µM,–,–,–,"CCCCC(=O)N[C@H]1CSSC[C@@H](C(N)=O)NC(=O)[C@H](CCC)NC(=O)[C@H]([C@@H](C)CC)NC(=O)[C@@H]2C[C@@H](O)CN2C(=O)[C@@H]2CCCN2C(=O)[C@H](Cc2ccccc2)NC(=O)[C@](C)(Cc2ccccc2)NC(=O)[C@H](CCC(N)=O)NC(=O)[C@H](CCCNC(=N)N)NC1=O [UPAR-478, Pent-[Cys-Arg-Gln-Amf-Phe-Pro-Hyp-Ile-Nva-Cys]-NH2] (Pentanoyl-CRQ[αMeF]FP[Hyp]I[Nva]C-NH2; disulfide 1-10)"
≥ 0.126 µM,> 0.1 µM,–,–,–,"CCCCC(=O)N[C@H]1CSSC[C@@H](C(N)=O)NC(=O)[C@H](CC(C)C)N(C)C(=O)[C@H]([C@@H](C)CC)NC(=O)[C@@H]2C[C@@H](O)CN2C(=O)[C@@H]2CCCN2C(=O)[C@H](Cc2ccccc2)NC(=O)[C@H](Cc2ccc(O)cc2)NC(=O)[C@H](CCC(N)=O)NC(=O)[C@H](CCCNC(=N)N)NC1=O [UPAR-480, Pent-[Cys-Arg-Gln-Tyr-Phe-Pro-Hyp-Ile-Nml-Cys]-NH2] (Pentanoyl-CRQYFP[Hyp]I[NMeL]C-NH2; disulfide 1-10)"
≤ 0.01 µM,< 0.00158 µM,–,–,–,"CCCCC(=O)N[C@H]1CSSCCNC(=O)[C@H](CCC)NC(=O)[C@H]([C@@H](C)CC)NC(=O)[C@@H]2C[C@@H](O)CN2C(=O)[C@@H]2CCCN2C(=O)[C@H](Cc2ccccc2)NC(=O)[C@H](Cc2ccc(O)cc2)NC(=O)[C@H](CCC(N)=O)NC(=O)[C@H](CCCNC(=N)N)NC1=O [UPAR-481, Pent-[Cys-Arg-Gln-Tyr-Phe-Pro-Hyp-Ile-Nva-AET]] (Pentanoyl-CRQYFP[Hyp]I[Nva]-Cysteamide; disulfide 1-C)"
≤ 0.01 µM,< 0.00158 µM,–,–,–,"CCC[C@@H]1NC(=O)[C@H]([C@@H](C)CC)NC(=O)[C@@H]2C[C@@H](O)CN2C(=O)[C@@H]2CCCN2C(=O)[C@H](Cc2ccccc2)NC(=O)[C@H](Cc2ccc(O)cc2)NC(=O)[C@H](CCC(N)=O)NC(=O)[C@H](CCCNC(=N)N)NC(=O)[C@@H](NC(=O)C2(NC(C)=O)CCCCC2)CSSC[C@@H](C(N)=O)NC1=O [UPAR-482, Ac-Egz-[Cys-Arg-Gln-Tyr-Phe-Pro-Hyp-Ile-Nva-Cys]-NH2] (Ac-[Ac6c]CRQYFP[Hyp]I[Nva]C-NH2; disulfide 2-11)"
≤ 0.01 µM,< 0.00158 µM,–,–,–,"CCC[C@@H]1NC(=O)[C@H]([C@@H](C)CC)NC(=O)[C@@H]2C[C@@H](O)CN2C(=O)[C@@H]2CCCN2C(=O)[C@H](Cc2ccccc2)NC(=O)[C@H](Cc2ccc(O)cc2)NC(=O)[C@H](CCC(N)=O)NC(=O)[C@H](CCCNC(=N)N)NC(=O)[C@@H](NC(=O)[C@H](CC(C)C)N(C)C(C)=O)CSSC[C@@H](C(N)=O)NC1=O [UPAR-483, Ac-Nml-[Cys-Arg-Gln-Tyr-Phe-Pro-Hyp-Ile-Nva-Cys]-NH2] (Ac-[NMeL]CRQYFP[Hyp]I[Nva]C-NH2; disulfide 2-11)"
≤ 0.01 µM,0.00158 to 0.01 µM,–,–,–,"CCC[C@@H]1NC(=O)[C@H]([C@@H](C)CC)NC(=O)[C@@H]2C[C@@H](O)CN2C(=O)[C@@H]2CCCN2C(=O)[C@H](Cc2ccccc2)NC(=O)[C@H](Cc2ccc(O)cc2)NC(=O)[C@H](CCC(N)=O)NC(=O)[C@H](CCCNC(=N)N)NC(=O)[C@@H](NC(=O)[C@H](CCc2ccccc2)NC(C)=O)CSSC[C@@H](C(N)=O)NC1=O [UPAR-484, Ac-Hfe-[Cys-Arg-Gln-Tyr-Phe-Pro-Hyp-Ile-Nva-Cys]-NH2] (Ac-[hPhe]CRQYFP[Hyp]I[Nva]C-NH2; disulfide 2-11)"
≤ 0.01 µM,< 0.00158 µM,–,–,–,"CCC[C@@H]1NC(=O)[C@H]([C@@H](C)CC)NC(=O)[C@@H]2C[C@@H](O)CN2C(=O)[C@@H]2CCCN2C(=O)[C@H](Cc2ccccc2)NC(=O)[C@H](Cc2ccc(O)cc2)NC(=O)[C@H](CCC(N)=O)NC(=O)[C@H](CCCNC(=N)N)NC(=O)[C@@H](NC(=O)[C@](C)(CC(C)C)NC(C)=O)CSSC[C@@H](C(N)=O)NC1=O [UPAR-485, Ac-Aml-[Cys-Arg-Gln-Tyr-Phe-Pro-Hyp-Ile-Nva-Cys]-NH2] (Ac-[αMeL]CRQYFP[Hyp]I[Nva]C-NH2; disulfide 2-11)"
–,–,A (pIC50 values ≥8.0),A (pKD values ≥ 8.8),–,Butoc-[Cys-Cit-Lys(LuDOTA)-Tyr-Pcf-4Cfp-Hyp-Chg-Nva-Cys]-NH2 [UPAR-169]
–,–,A (pIC50 values ≥8.0),–,A (pKD values ≥ 8.8),Butoc-[Cys-Cit-Lys(LuDOTA)-Tyr-Pcf-4Cfp-Hyp-Ile-Nva-Cys]-NH2 [UPAR-369]
–,–,A (pIC50 values ≥8.0),A (pKD values ≥ 8.8),–,Pent-[Cys-Asn-Lys(LuDOTA)-Tyr-Phe-Pro-Hyp-Ile-Nva-Cys]-NH2 (Pentanoyl-CNK(DOTA(Lu))YFP[Hyp]I[Nva]C-NH2; disulfide 1-10; not fully specified; also: Lu(III) complexed by DOTA) [UPAR-335]
–,–,A (pIC50 values ≥8.0),A (pKD values ≥ 8.8),–,Pent-[Cys-Cit-Lys(GdDOTA)-Mpa-Phe-Pro-Hyp-Ile-Nva-Cys]-NH2 [UPAR-251]
–,–,A (pIC50 values ≥8.0),–,A (pKD values ≥ 8.8),Pent-[Cys-Cit-Lys(GdDOTA)-Tyr-Phe-Pro-4Tfp-Ile-Nva-Cys]-NH2 (Pentanoyl-C[Cit]K(GdDOTA)YFP[Pro(trans-4-F)]I[Nva]C-NH2; disulfide 1-10; not fully specified; also: Gd(III) complexed by DOTA) [UPAR-435]
–,–,A (pIC50 values ≥8.0),A (pKD values ≥ 8.8),–,Pent-[Cys-Cit-Lys(InDOTA)-Tyr-Mpa-Pro-Hyp-Ile-Nva-Cys]-NH2 [UPAR-331]
–,–,A (pIC50 values ≥8.0),–,A (pKD values ≥ 8.8),Pent-[Cys-Cit-Lys(InDOTA)-Tyr-Pcf-Pro-Hyp-Ile-Nva-Cys]-NH2 [UPAR-355]
–,–,A (pIC50 values ≥8.0),A (pKD values ≥ 8.8),–,Pent-[Cys-Cit-Lys(InDOTA)-Tyr-Phe-Pro-Hyp-Ile-Nva-Cys]-NH2 (Pentanoyl-C[Cit]K(DOTA(In))YFP[Hyp]I[Nva]C-NH2; disulfide 1-10; not fully specified; also: In(III) complexed by DOTA) [UPAR-182]
–,–,A (pIC50 values ≥8.0),–,A (pKD values ≥ 8.8),Pent-[Cys-Cit-Lys(InDOTA-PEG12)-Tyr-Phe-Pro-Hyp-Ile-Nva-Cys]-NH2 (Pentanoyl-C[Cit]KYFP[Hyp]I[Nva]C-NH2; disulfide 1-10; not fully specified (residue 3); printed as Pent-[Cys-Cit-Lys(InDOTA-PEG12)-Tyr-Phe-Pro-Hyp-Ile-Nva-Cys]-NH2; also: In(III) complexed by DOTA) [UPAR-404]
–,–,A (pIC50 values ≥8.0),A (pKD values ≥ 8.8),–,Pent-[Cys-Cit-Lys(LaDOTA)-Ppa-Phe-Pro-Hyp-Ile-Nva-Cys]-NH2 [UPAR-296]
–,–,A (pIC50 values ≥8.0),A (pKD values ≥ 8.8),–,Pent-[Cys-Cit-Lys(LaDOTA)-Tyr-Phe-Pro-Aib-Ile-Nva-Cys]-NH2 (Pentanoyl-C[Cit]K(LaDOTA)YFP[Aib]I[Nva]C-NH2; disulfide 1-10; not fully specified; also: La(III) complexed by DOTA) [UPAR-279]
–,–,A (pIC50 values ≥8.0),A (pKD values ≥ 8.8),–,Pent-[Cys-Cit-Lys(LaDOTA)-Tyr-Thi-Pro-Hyp-Ile-Nva-Cys]-NH2 [UPAR-166]
–,–,A (pIC50 values ≥8.0),–,A (pKD values ≥ 8.8),Pent-[Cys-Cit-Lys(LuDOTA)-Guf-Phe-Pro-Hyp-Ile-Nva-Cys]-NH2 [UPAR-350]
–,–,A (pIC50 values ≥8.0),–,A (pKD values ≥ 8.8),Pent-[Cys-Cit-Lys(LuDOTA)-Nif-Phe-Pro-Hyp-Ile-Nva-Cys]-NH2 [UPAR-352]
–,–,A (pIC50 values ≥8.0),A (pKD values ≥ 8.8),–,Pent-[Cys-Cit-Lys(LuDOTA)-Tyr-Egm-Pro-Hyp-Ile-Nva-Cys]-NH2 [UPAR-254]

Compound,IC50 [1],Kd (human uPAR (uPAR-Fc); single cycle kinetics),pIC50 CAT [1],pKD CAT (human uPAR (uPAR-Fc)),pKD CAT (human uPAR (uPAR-Fc); single cycle kinetics)
"CCCCOC(=O)N[C@H]1CSSC[C@@H](C(N)=O)NC(=O)[C@H](CCC)NC(=O)[C@H](C2CCCCC2)NC(=O)[C@@H]2C[C@@H](O)CN2C(=O)[C@@H]2C[C@H](F)CN2C(=O)[C@H](Cc2ccc(Cl)cc2)NC(=O)[C@H](Cc2ccc(O)cc2)NC(=O)[C@H](CCCCNC(=O)CN2CCN(CC(=O)O)CCN(CC(=O)O)CCN(CC(=O)O)CC2)NC(=O)[C@H](CCCNC(N)=O)NC1=O [UPAR-476, Butoc-[Cys-Cit-Lys(DOTA)-Tyr-Pcf-4Cfp-Hyp-Chg-Nva-Cys]-NH2] (Butoxycarbonyl-C[Cit]K(DOTA)Y[Phe(4-Cl)][Pro(cis-4-F)][Hyp][Chg][Nva]C-NH2; disulfide 1-10)",≤ 0.01 µM,< 0.00158 µM,–,–,–

# Reference: patent EP4610269A1, “UROKINASE PLASMINOGEN ACTIVATOR SURFACE RECEPTOR (UPAR) LIGANDS FOR DIAGNOSTIC OR THERAPEUTIC USE” (3B Pharmaceuticals GmbH, priority 2024, dated 2025)
